Measurements taken from paper PMC7689791 (Journal of Clinical Pharmacology, 2020).

Assay: Observed incidence of treatment-emergent adverse events in clinical studies
Settings: studies 202, 303, 304; 5 to 15 mg

With `Cc1ncc(OC[C@@]2(c3cccc(F)c3)C[C@H]2C(=O)Nc2ccc(F)cn2)c(C)n1` [Lemborexant] the “Flu/influenza frequency, active treatment” value was 4.0%.
